Values of other authors, collected in patent US7858659B2, “Redox therapy for tumors” (priority 2003, dated 2010).
Values after ≈ are worked out from the molar mass of the structure shown. Read-outs that look alike come from different tables or passages of the source.

Columns and labels:
[1] = tested on: U937 cancer cells; settings: Lizard et al. 1998; cited from earlier work
[2] = tested on: prostate cancer cell lines; settings: green tea phenols; cited from earlier work
[3] = tested on: malignant cells; settings: Table 1; BSO: [Kito]; cited from earlier work
[4] = tested on: mice; settings: mouse, in vivo; cited from earlier work
[5] = tested on: neuroblastoma cells; settings: Nicole et al. 1998; cited from earlier work
[6] = tested on: malignant cells; settings: BSO by itself; Dai et al. 1999; cited from earlier work
[7] = Example 4 table; cited from earlier work
[8] = tested on: malignant cells; settings: cited from earlier work; for Effective Concentration in vitro: Example 4 table; for Concentration: Table 1
[9] = tested on: adults; settings: cited from earlier work
[10] = cited from earlier work; for Solubility: Example 4 table
[11] = biological target: T1, glutathione reductase (GR) (Mus musculus, UniProt P47791); settings: Cohen 1988, cited from earlier work
T1 construct: recovery of enzyme activity in exponentially growing murine leukemia (L1210) cells treated with 1,3-bis(2-chloroethyl)-1-nitrosourea
T1 sequence (P47791 27-500): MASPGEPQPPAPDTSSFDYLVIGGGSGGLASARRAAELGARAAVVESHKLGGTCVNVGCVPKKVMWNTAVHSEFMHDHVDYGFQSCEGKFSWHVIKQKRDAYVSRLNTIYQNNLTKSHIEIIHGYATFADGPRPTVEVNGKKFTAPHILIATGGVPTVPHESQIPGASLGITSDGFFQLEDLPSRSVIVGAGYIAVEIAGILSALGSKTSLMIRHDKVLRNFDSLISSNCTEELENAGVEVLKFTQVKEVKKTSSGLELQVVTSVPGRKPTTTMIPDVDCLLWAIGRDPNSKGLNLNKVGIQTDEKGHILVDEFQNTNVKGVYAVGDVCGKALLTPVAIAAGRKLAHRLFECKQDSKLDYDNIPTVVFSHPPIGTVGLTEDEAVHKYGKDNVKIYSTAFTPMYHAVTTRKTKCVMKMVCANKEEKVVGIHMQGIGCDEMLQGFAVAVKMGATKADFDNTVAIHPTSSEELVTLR

[12] = tested on: mice/rats; settings: cited from earlier work
[13] = tested on: rats; settings: cited from earlier work
[14] = tested on: normal human bronchial fibroblasts and human bronchial epithelial cells; settings: cited from earlier work
[15] = tested on: A-427 and A-172; settings: various cancer cell lines, such as A-427 and A-172; cited from earlier work
[16] = tested on: normal lymphocytes; settings: Sen et al. 1999; cited from earlier work
[17] = tested on: Jurkat T-cell leukemia cells; settings: Sen et al. 1999; cited from earlier work

CC(C)CCC[C@@H](C)[C@H]1CC[C@H]2[C@@H]3C(=O)C=C4C[C@@H](O)CC[C@]4(C)[C@H]3CC[C@]12C [7-ketocholesterol]
apoptosis [1]: induced apoptosis

O=C(O[C@@H]1Cc2c(O)cc(O)cc2O[C@@H]1c1cc(O)c(O)c(O)c1)c1cc(O)c(O)c(O)c1 [(−)-epigallocatechin-3-gallate]
apoptosis [2]: induced apoptosis

CCCCS(=N)(=O)CCC(N)C(=O)O (stereo not drawn) [BSO, buthionine sulfoximine]
apoptosis [3]: Enhancement [Kito]
Toxicity [4]: 9.6 g/kg (mice) →
apoptosis [5]: induced apoptosis
decrease of GSH content [5]: 98%
apoptosis [6]: did not induce significant apoptosis
decrease in [GSH] in the cell [6]: 70%
Toxicity [7]: 10,000 microM
Effective Concentration in vitro [8]: 100 µM
Concentration ([8]; disulfiram: [Cen]): 10 to 25 µM
Toxicity: nausea/vomiting ([9]; [Bailey]): occasional
Solubility [10]: soluble
Solubility [Merck] ([10]; Table 1, in words): Soluble

O=NN(CCCl)C(=O)NCCCl [Carmustine, N,N′-bis(2-chloroethyl)-N-nitrosourea]
apoptosis [3]: Induction
activity of GR restored ([11]; 12 hours, de novo synthesis): 50%
GR restored ([11]; 24 hours, de novo synthesis): 70%
concentration with which GR is inhibited ([11]; only carmustine present): 10 µM
time within which GR is inhibited ([11]; with 10 μM): ½
Effective Concentration in vitro [8]: 0.05 µM
Concentration ([8]; [Cohen & Duval]): 50 ng/mL
Solubility [10]: 40 µM (≈ 8.56 µg/mL)
Solubility [Merck] ([10]; Table 1): 4 mg/L (≈ 18.7 µM)
LD50 [Merck] [12]: 25 to 30 mg/kg

CCN(CC)C(=S)SSC(=S)N(CC)CC [Disulfiram]
Toxicity [7]: 10,000 microM
LD50 [Merck] [13]: 8600 mg/kg (rats)
Toxicity ([9]; adults): 3 g (adults)
Solubility [10]: 2,000 microM
Solubility [Merck] ([10]; Table 1): 0.02 g/100 ml

C=CC=O [acrolein]
toxicity to normal cells [14]: highly toxic
cytotoxicity [15]: induced cytotoxicity

O=C(O)CCCCC1CCSS1 (stereo not drawn) [α-lipoic acid]
apoptosis [16]: did not
apoptosis [17]: underwent apoptosis
